From patent EP0406122A1, “Process for obtaining a native, wild-type human oestrogen receptor and its applications” (ASSOCIATION POUR LE DEVELOPPEMENT DE LA RECHERCHE EN …, priority 1989, dated 1991)

Biological target: T1, hER Gly-400 (HEGO) (Homo sapiens, UniProt P03372)
T1 construct: expressed in transfected cells; host or cells: HeLa
T1 sequence (P03372 1-595): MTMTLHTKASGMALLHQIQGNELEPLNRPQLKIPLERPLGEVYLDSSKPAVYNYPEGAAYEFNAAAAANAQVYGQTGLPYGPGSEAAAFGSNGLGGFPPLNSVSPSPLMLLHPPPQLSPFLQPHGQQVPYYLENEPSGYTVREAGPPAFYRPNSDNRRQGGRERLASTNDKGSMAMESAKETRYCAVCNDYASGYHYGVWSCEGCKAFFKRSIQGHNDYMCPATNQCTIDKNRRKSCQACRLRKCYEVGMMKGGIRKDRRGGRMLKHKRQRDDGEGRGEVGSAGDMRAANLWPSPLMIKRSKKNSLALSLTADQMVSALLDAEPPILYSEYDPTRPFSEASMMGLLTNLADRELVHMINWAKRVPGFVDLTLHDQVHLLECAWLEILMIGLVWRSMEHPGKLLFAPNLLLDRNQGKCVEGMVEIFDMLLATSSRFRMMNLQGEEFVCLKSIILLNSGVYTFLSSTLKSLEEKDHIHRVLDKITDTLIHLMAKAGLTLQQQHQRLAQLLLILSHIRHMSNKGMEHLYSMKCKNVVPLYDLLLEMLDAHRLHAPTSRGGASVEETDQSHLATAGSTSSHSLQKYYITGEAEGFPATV
Test: transcription activation, vit-tk-CAT reporter in HeLa cells transfected with HEGO
Format: cell-based, humain
Settings: 10⁻⁷ M ICI 164,384 in the presence of 10⁻⁸ M oestradiol, CAT activity
Protocol: On a transfecté des cellules Hela avec 50 ng de vecteurs d'expression de Er humain ou de Er de poulet comme indiqué, conjointement avec 1 µg de plasmide "reporter" vit-tk-cat, et le plasmide pCH 110 de contrôle interne de l'expression de la béta-galactosidase (3µg) et de l'ADN transporteur (Bluescribe M13+) pour un total de 20 µg d'ADN.
• A) Des cellules HeLa ont été transfectées avec 10 ng des vecteurs d'expression de l'hER correspondant, HEO (colonnes 1-5), ou HEGO (colonnes 6-10), conjointement avec 1 µG de plasmide "reporter" vit-tk-CAT, 3 µG du plasmide de contrôle de la béta-galactosidase pCH110 et avec de l'ADN Bluescribe M13+ pour un total d'ADN de 20 µg. […] 2 heures plus tard on a récolté les cellules […] et un dosage de la béta-galactosidase a été effectué.

CCCCN(C)C(=O)CCCCCCCCCC[C@@H]1Cc2cc(O)ccc2[C@H]2CC[C@]3(C)[C@@H](O)CC[C@H]3[C@H]12 [ICI 164,384]
effet sur l'induction à l'oestradiol: très peu d'effet
